We go through 16 molecules from ChEMBL document CHEMBL1201862, “PubChem BioAssay data set” (2004).

Assay [1] is described as follows: cytotoxicity in HPDE-C7 cells, cell-based, fluorescence, HTS (AID 430). It counts as functional. Particulars: Homo sapiens.
Assay [2] in a line: cytotoxicity in KRAS-transformed pancreatic duct cells, primary screen, cell-based, fluorescence, HTS (AID 431).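 Further: cell line used: HPDE-C7K.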 Particulars: Homo sapiens. It counts as functional.
Assay [3] in a line: growth suppression of PTEN-null colon cells, dose response, cell-based, HCT116 PTEN knockout (AID 1047).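 Further: HCT116 colon tumor cells with PTEN knocked out; cells exposed to compound for 60 hours before readout; potency for loss of cell viability measured by luminescence.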 It counts as functional.
Assay [4] can be described thus: growth suppression of beta-catenin-knockout colon cells, dose response, cell-based, HCT116, human colon tumor (AID 1045).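 Further: HCT116 colon tumor cells with beta catenin knocked out; cells exposed to compound for 60 hours.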 The class given is functional.
For the next assay, the system named is H9c2. Briefly: cells. To be noted: Rattus norvegicus, H9c2, Myocardium. It counts as functional, cell-based.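 Further: confirmatory concentration-response retest of ultra-high-throughput screening hits for modulation of myocardial damage; cell death induced by hydrogen peroxide oxidative stress; compound pretreatment for 60 min then peroxide exposure for 2 h; potency is for protecting the cells against peroxide damage rather than for killing them.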
Assay [5] deals with Glyceraldehyde-3-phosphate dehydrogenase (Homo sapiens, UniProt P04406).
Assay [6] concerns the target Induced myeloid leukemia cell differentiation protein Mcl-1 (Homo sapiens, UniProt Q07820). The class given is functional.
The target of assay [7] is FAD-linked sulfhydryl oxidase ALR (Homo sapiens, UniProt P55789). Nature of the assay: inhibitors of human ALR sulfhydryl oxidase, dose response, biochemical, H2O2 detection, luminescence, cherry-pick (AID 493248).
The nature of assay [8]: HEp-2 cell cytotoxicity, dose response, cytotoxicity control for RSV inhibitor project, HTS (AID 2410). It counts as functional. Particulars: human respiratory syncytial virus.
A short description of assay [9]: cells.
Assay [10] addresses T1, RNA-binding protein pos-1 (Caenorhabditis elegans, UniProt G5EF15).
T1 sequence (G5EF15 whole entry): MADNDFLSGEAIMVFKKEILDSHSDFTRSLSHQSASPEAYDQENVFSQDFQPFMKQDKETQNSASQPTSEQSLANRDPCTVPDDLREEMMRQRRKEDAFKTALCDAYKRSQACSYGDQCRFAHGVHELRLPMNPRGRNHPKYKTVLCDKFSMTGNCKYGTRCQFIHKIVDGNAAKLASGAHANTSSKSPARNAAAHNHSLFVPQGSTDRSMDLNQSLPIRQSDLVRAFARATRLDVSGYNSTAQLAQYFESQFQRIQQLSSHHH
Briefly: inhibitors of POS-1/mex-3 RNA binding, dose response, biochemical, fluorescence polarization (AID 1964).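 Further: purified POS-1 fused to maltose binding protein made in E. coli; potency of compounds blocking POS-1 binding to fluorescent RNA.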

In assay [11] the target is T2, Zinc finger protein mex-5 (Caenorhabditis elegans, UniProt Q9XUB2).
T2 sequence (Q9XUB2 whole entry): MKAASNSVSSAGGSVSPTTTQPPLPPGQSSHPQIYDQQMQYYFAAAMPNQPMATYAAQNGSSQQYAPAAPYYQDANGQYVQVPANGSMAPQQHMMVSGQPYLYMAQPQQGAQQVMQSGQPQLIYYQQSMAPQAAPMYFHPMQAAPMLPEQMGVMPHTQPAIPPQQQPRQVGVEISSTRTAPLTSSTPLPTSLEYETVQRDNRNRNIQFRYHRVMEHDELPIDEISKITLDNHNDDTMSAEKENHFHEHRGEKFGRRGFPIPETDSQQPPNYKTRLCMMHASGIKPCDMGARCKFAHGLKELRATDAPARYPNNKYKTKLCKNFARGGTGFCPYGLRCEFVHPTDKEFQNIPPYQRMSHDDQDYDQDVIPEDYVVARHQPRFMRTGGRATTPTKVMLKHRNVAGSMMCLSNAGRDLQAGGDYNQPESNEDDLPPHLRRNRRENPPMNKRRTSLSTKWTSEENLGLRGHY
Briefly: MEX-5/TCR-2 RNA interaction inhibitors, dose response, biochemical, C. elegans, fluorescence polarization (AID 1960).

In the next assay the target is Large T antigen (Simian virus 40, UniProt P03070). The class given is functional, Betapolyomavirus macacae.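 Further: Confirmatory-stage PubChem screen for compounds that inhibit SV40 T antigen.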
A short description of assay [12]: THP-1 cell cytotoxicity, dose response, cytotoxicity control for non-replicating M. tuberculosis project (AID 489025). The class given is functional.
Assay [13] can be described thus: cells. It counts as functional.
For another assay, the target named is Genome polyprotein (dengue virus type 2, UniProt P29990). Nature of the assay: Dengue-2 NS5 methyltransferase inhibitors, primary screen, biochemical, confirmation dose response (AID 588689). The class given is functional.
The target in assay [14] is Peroxisome proliferator-activated receptor gamma/Nuclear receptor coactivator 1 (Homo sapiens, UniProt P37231). Briefly: TR-FRET dose response biochemical High Throughput Screening assay for agonists of the steroid receptor coactivator 1 (SRC-1) recruitment by the peroxisome proliferator-activated receptor gamma (PPAR gamma): non-selective agonists. [Related pubchem assays (depositor defined):AID1300, AID1808, AID504735, AID631]. The class given is protein assay.

Assay [15] addresses Peroxisome proliferator-activated receptor gamma/Nuclear receptor coactivator 3 (Homo sapiens, UniProt P37231). Nature of the assay: TR-FRET dose response biochemical High Throughput Screening assay for agonists of the steroid receptor coactivator 3 (SRC-3) recruitment by the peroxisome proliferator-activated receptor gamma (PPAR gamma): non-selective agonists. [Related pubchem assays: 1301 (Confirmation screen.), 1048 (Primary screen.)]. It counts as functional. On the technique in general: TR-FRET usually uses a lanthanide donor and a delayed reading to cut background.

Assay [16] has as its target Peroxisome proliferator-activated receptor gamma/Nuclear receptor coactivator 2 (Homo sapiens, UniProt P37231). Nature of the assay: TR-FRET dose response biochemical High Throughput Screening assay for agonists of the steroid receptor coactivator 2 (SRC-2) recruitment by the peroxisome proliferator-activated receptor gamma (PPAR gamma): non-selective agonists. [Related pubchem assays: 1297, 1032 ]. It counts as functional.

A short description of assay [17]: inhibitors of intracellular T. cruzi replication, confirmation, NIH3T3 host cells, beta-gal luminescence (AID 2044).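 Further: intracellular parasites grown in NIH/3T3 mouse fibroblasts as host cells; luminescent beta-galactosidase reporter signal from transgenic T. cruzi replicating inside host cells; inhibitors lower the luminescence signal.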 It counts as functional, cell-based.
Assay [18] can be described thus: cytotoxicity toward NIH3T3 fibroblasts, dose response, counter-screen, cell-based, ATP luminescence, mouse fibroblasts (AID 2010).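 Further: cells exposed to compound for about 90 hours before reading.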 The class given is functional. (Counterscreens check selectivity or assay interference.)
For assay [19], the target named is T3, Short transient receptor potential channel 4 (Mus musculus, UniProt Q9QUQ5).
T3 sequence (Q9QUQ5 whole entry): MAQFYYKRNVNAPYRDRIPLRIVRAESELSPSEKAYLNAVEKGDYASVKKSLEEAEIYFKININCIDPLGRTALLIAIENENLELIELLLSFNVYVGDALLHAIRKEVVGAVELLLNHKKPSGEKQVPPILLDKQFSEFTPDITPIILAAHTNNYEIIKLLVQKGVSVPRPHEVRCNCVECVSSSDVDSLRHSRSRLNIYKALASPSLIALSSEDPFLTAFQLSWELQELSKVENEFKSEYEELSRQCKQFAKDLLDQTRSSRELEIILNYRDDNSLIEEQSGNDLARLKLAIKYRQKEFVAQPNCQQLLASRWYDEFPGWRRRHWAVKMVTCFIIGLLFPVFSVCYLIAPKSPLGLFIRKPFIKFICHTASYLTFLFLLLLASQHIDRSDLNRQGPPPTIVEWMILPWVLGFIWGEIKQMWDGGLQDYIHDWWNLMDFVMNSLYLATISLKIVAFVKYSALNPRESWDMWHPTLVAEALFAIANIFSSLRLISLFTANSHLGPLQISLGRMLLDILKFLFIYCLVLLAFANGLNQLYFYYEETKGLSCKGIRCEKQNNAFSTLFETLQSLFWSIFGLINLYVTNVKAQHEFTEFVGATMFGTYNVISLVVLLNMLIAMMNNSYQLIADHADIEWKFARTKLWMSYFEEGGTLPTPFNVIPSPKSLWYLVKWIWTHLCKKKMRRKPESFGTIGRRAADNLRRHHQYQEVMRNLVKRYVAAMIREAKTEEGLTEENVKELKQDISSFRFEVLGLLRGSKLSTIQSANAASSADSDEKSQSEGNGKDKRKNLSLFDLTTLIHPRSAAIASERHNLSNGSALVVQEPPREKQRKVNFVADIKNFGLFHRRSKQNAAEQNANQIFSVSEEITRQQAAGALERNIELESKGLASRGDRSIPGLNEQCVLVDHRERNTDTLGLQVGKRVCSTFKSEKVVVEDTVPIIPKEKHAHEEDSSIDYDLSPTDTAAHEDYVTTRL
Briefly: mouse TRPC4 channel inhibitors, dose response, cell-based, HEK293 TRPC4/mu-opioid, Fluo-4 calcium (AID 434942).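 Further: potency of inhibitors blocking the TRPC4 calcium response.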 The class given is functional.

A short description of assay [20]: cells. This is another data set of the same source.

Molecules are shown by their SMILES. Active and inactive are the calls of the source.

Sequence of Glyceraldehyde-3-phosphate dehydrogenase (P04406 whole entry): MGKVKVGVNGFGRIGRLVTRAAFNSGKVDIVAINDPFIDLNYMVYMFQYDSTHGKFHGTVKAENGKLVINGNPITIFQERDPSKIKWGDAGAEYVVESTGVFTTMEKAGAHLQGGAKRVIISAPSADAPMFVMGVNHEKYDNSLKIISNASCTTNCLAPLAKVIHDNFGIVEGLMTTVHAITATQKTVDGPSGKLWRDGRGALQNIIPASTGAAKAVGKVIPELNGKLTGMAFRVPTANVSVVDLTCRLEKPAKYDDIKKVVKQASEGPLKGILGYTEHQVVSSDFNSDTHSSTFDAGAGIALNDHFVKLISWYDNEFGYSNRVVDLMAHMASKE
Sequence of Peroxisome proliferator-activated receptor gamma/Nuclear receptor coactivator 2 (P37231 whole entry): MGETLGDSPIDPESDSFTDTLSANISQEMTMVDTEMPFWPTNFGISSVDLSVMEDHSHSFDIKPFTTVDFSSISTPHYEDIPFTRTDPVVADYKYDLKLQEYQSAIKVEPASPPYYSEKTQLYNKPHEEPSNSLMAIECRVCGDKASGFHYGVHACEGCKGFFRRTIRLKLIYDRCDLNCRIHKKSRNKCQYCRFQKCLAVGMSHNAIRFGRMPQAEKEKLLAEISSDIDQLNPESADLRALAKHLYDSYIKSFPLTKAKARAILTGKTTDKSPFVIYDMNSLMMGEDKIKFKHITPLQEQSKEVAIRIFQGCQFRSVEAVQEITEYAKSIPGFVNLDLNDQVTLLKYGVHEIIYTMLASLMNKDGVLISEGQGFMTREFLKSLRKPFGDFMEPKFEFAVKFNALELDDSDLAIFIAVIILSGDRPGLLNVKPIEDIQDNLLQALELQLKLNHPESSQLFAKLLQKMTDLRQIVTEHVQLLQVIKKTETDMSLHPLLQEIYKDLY
Sequence of Peroxisome proliferator-activated receptor gamma/Nuclear receptor coactivator 2 (Q15596 whole entry, further chain): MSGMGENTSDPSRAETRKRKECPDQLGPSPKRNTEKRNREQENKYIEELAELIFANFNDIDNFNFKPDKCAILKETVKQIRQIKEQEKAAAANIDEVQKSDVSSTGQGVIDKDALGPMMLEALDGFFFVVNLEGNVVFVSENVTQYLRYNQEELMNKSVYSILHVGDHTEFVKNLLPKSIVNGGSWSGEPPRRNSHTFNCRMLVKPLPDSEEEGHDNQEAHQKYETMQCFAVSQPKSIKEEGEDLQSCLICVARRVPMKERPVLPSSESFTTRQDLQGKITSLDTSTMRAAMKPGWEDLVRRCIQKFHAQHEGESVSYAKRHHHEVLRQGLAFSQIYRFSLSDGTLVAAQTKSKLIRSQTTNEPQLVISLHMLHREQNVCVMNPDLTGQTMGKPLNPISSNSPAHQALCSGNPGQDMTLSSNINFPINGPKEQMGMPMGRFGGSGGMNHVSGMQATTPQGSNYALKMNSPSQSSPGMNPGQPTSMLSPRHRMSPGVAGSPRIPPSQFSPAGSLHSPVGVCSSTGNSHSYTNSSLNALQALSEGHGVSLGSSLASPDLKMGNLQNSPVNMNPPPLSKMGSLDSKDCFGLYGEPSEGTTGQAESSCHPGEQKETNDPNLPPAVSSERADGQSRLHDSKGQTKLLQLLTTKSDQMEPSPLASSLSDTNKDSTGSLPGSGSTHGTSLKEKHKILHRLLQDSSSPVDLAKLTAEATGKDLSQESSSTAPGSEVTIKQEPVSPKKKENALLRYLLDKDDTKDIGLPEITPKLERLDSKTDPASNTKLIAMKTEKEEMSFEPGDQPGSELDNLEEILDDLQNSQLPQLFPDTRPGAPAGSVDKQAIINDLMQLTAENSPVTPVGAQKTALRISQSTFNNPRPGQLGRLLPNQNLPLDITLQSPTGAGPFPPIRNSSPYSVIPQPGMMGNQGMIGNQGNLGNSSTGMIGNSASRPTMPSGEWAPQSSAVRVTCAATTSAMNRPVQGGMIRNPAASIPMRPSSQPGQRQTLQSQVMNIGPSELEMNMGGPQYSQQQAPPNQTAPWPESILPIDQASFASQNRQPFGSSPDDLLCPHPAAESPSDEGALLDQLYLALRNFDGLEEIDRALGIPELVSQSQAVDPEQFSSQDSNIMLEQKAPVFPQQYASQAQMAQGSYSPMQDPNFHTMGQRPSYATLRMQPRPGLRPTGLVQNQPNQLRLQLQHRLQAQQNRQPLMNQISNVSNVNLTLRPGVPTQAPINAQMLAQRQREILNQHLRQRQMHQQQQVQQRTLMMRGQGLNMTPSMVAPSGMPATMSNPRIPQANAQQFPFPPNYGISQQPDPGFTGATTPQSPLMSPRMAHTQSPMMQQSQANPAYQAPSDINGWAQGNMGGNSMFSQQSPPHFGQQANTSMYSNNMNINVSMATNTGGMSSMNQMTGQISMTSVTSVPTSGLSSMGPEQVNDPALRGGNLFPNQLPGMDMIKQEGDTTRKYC
Sequence of Peroxisome proliferator-activated receptor gamma/Nuclear receptor coactivator 3 (P37231 whole entry): as the sequence (P37231 whole entry) above
Sequence of Peroxisome proliferator-activated receptor gamma/Nuclear receptor coactivator 3 (Q9Y6Q9 whole entry, further chain): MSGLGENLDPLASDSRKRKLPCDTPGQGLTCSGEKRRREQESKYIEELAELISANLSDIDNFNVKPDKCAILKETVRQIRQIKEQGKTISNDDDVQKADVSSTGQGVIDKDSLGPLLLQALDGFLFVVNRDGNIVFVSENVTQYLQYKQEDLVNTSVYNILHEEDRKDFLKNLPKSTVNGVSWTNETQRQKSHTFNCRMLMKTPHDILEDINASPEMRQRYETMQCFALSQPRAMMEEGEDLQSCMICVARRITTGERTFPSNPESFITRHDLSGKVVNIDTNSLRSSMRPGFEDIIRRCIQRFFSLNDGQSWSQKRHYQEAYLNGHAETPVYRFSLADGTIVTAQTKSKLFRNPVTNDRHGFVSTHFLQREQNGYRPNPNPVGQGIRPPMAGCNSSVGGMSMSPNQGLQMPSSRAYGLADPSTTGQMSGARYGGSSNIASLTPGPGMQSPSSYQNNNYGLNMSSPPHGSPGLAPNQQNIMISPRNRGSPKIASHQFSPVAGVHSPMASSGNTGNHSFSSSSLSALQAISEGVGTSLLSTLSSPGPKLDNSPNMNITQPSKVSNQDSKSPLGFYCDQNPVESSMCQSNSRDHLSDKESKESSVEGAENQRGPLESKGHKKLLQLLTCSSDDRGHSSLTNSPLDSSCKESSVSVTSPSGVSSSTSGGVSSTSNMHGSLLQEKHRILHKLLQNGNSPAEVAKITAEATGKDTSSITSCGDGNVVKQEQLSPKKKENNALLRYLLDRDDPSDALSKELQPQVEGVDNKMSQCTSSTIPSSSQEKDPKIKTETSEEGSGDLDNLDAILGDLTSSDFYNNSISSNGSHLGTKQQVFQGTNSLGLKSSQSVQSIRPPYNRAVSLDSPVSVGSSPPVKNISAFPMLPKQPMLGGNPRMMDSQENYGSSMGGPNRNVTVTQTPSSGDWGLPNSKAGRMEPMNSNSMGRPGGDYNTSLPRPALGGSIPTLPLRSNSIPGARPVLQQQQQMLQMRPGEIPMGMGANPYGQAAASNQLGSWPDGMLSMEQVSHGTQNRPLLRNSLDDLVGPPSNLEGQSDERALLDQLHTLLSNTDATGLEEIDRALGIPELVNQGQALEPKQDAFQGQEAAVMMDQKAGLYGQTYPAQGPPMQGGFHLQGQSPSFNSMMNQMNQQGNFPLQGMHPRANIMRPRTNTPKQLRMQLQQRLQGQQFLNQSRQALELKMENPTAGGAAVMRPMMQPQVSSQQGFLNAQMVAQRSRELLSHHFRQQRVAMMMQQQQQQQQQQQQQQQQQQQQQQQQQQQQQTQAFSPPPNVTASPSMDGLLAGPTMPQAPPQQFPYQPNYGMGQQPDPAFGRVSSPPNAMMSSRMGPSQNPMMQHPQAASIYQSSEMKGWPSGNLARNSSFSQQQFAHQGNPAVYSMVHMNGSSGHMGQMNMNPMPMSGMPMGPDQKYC
Sequence of Induced myeloid leukemia cell differentiation protein Mcl-1 (Q07820 whole entry): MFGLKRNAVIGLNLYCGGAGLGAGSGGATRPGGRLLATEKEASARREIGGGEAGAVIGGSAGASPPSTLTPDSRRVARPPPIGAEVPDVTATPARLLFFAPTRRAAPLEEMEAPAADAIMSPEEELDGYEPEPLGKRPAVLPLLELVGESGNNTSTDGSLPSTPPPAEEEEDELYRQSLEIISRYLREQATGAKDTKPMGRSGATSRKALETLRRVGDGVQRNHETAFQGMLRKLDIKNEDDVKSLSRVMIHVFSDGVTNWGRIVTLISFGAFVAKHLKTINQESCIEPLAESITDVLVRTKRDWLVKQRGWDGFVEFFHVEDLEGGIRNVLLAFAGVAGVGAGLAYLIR
Sequence of FAD-linked sulfhydryl oxidase ALR (P55789 whole entry): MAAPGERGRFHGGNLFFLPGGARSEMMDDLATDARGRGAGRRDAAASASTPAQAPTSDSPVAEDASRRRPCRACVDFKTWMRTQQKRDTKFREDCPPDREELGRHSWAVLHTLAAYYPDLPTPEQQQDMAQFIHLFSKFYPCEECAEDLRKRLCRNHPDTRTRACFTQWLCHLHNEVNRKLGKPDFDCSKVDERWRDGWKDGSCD

Usually EC50 stands for the concentration needed to bring the measured effect to its halfway point. The IC50 is the concentration that gives 50% inhibition. On to `C=CCn1cnc2c(c1=O)c1nc3ccccc3nc1n2/N=C/c1cc(OC)c(OC)c(OC)c1`, for which the EC50 is 11.2 µM (active) in assay [1], 5.68 µM (active) in assay [2], 4.4 µM (active) in assay [3] and 4.67 µM (active) in assay [4]. Moreover, in the assay with H9c2, the IC50 was > 79 µM (inactive).
Consider `Cc1ccc(C2=NC(=O)/C(=C/C=C/c3ccc([N+](=O)[O-])o3)S2)cc1`, for which the IC50 in assay [5] is on record as > 100 µM (not active).
The term AC50 denotes the concentration at which the activity in the assay is half-maximal. As for `O=C(CN1CCN(c2ccc(O)cc2)CC1)Nc1cc([N+](=O)[O-])ccc1Cl`, the IC50 in assay [6] is 5.07 µM (active). Also, the half-maximal activity concentration (AC50) in assay [7] was 1.24 µM (active).
The CC50 is the concentration at which the toxic effect on the cells reaches its halfway point. In the case of `CC(C)(C)CC(=O)NC(=S)NCCc1ccccc1`, the CC50 in assay [8] was 39.4 µM (active). In addition, the half-maximal inhibitory concentration (IC50) in the assay “cells [9]” was 18.4 µM (active).
As for `O=[N+]([O-])c1cc(C(F)(F)F)ccc1N1CCC(O)CC1`, in assay [8], the CC50 is 47.2 µM (active). Besides, the IC50 in “cells [9]” is 19.8 µM (active).
In the same order, the values of `COC(=O)C1=C(C)N(Cc2ccccc2)C(=O)N[C@H]1c1cccc(C(F)(F)F)c1` are 32.9 µM (active) and 8.17 µM (active).
With `COc1cccc(N2C(=O)NC(=O)/C(=C/c3ccc([N+](=O)[O-])s3)C2=O)c1`, the CC50 was 13.8 µM (active) in [8] and 37.1 µM (active) in assay [12]. For the same molecule, the EC50 in assay [10] is 34.4 µM (active); in [11], 27.2 µM (active). For the same molecule, the IC50 at Large T antigen is 47.3 µM (active); in the assay “cells [13]”, 27.6 µM (active); at Genome polyprotein, 38 µM (active).
For the molecule `Cc1ccc(-n2c(S)nnc2-c2ccccc2)cc1`, the EC50 in assay [14] was 33.6 µM (inactive); in assay [15] it was > 79.4 µM (not active); in assay [16], 18.4 µM (not active).
In the case of `CN(C)C1=C(Cl)C(=O)N(c2cccc(C(F)(F)F)c2)C1=O`, the IC50 in assay [5] was > 50 µM (inconclusive).
Take `CCC(C(=O)Nc1nnc(-c2ccco2)s1)c1ccccc1` (configuration not stated): the EC50 in [14] was > 79.4 µM (inactive); in [15] it was > 79.4 µM (not active); in assay [16] it was 43.6 µM (not active).
Consider `CCN(CC)c1nc2c3c(nc4c(c3c1C#N)CC(=O)N4c1ccc(Cl)cc1)NC(C)=N2`, for which, in assay [6], the half-inhibitory concentration (IC50) is 2.18 µM (active).
For `COc1cc(S(=O)(=O)Nc2cccnc2)c(OC)cc1Cl`, the IC50 in assay [5] is reported as > 100 µM (not active).
`Cn1c(=O)cc(SCC(=O)NCc2cccnc2)c2ccccc21`: the EC50 in assay [14] is > 79.4 µM (inactive); in assay [15], > 79.4 µM (not active); in assay [16], > 79.4 µM (not active).
Consider `O=C(CCN1CCc2ccccc2C1)c1ccc2c(c1)OCCO2`, for which the half-maximal effective concentration (EC50) is 9.07 µM (active) in assay [1] and 11.5 µM (active) in assay [2].
With `CN(CC1CCCN(CCc2cccc(C(F)(F)F)c2)C1)C(=O)c1cc2ccccc2o1` (configuration not stated), the 50% effective concentration (EC50) is < 100 nM (active) in assay [17], 8.57 µM (active) in assay [18], 668 nM (active) in assay [19] and 82 nM (active) in “cells [20]”.
Turning to `Cc1ccc2nc(N(CCCN(C)C)C(=O)c3cc4ccccc4oc3=O)sc2c1`, the EC50 in assay [17] was < 100 nM (active); in assay [18], > 60 µM (not active); in the assay “cells [20]” it was 116 nM (active).
